Key:
[1] = organism: Rattus norvegicus; assay: Inhibition of protein tyrosine phosphatase (PTP) activity in rat liver endosome insulin receptor (IR) dephosphorylation assay at 1 mM
[2] = target: T1, Tyrosine-protein phosphatase non-receptor type 1 (Homo sapiens, UniProt P18031); assay: Inhibition of protein tyrosine phosphatase 1B (PTP1B) activity in 3,6-fluorescein diphosphate (FDP) assay
T1 sequence (P18031 whole entry): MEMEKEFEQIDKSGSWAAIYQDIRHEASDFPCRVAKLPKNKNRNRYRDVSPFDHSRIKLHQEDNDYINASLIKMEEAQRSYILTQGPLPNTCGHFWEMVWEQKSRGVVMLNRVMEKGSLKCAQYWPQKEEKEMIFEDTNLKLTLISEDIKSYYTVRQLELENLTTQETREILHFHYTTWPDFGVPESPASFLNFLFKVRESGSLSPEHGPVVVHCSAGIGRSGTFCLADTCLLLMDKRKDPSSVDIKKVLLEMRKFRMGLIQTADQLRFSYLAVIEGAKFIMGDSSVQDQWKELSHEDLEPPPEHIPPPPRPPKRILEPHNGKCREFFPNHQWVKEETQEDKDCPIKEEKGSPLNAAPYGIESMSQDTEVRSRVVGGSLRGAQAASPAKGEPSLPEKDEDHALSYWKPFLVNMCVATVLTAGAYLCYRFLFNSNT

[3] = organism: Rattus norvegicus; assay: Inhibition of protein tyrosine phosphatase (PTP) activity in rat liver endosome insulin receptor (IR) dephosphorylation assay at 0.1 mM
[4] = target: T1, Tyrosine-protein phosphatase non-receptor type 1; assay: Inhibition of protein tyrosine phosphatase 1B (PTP1B) activity in 3,6-fluorescein diphosphate (FDP) assay; NI= no inhibition

| Structure (SMILES) | inhibition [1] [%] | IC50 [2] [µM] | inhibition [3] [%] | IC50 [4] |
| --- | --- | --- | --- | --- |
| O=I(=O)c1ccc(I(=O)=O)cc1 | 30 | 1410 |  |  |
| O=P1(O)Oc2ccccc2I(=O)(O)O1 (stereo not given) |  | 350 | 17 |  |
| O=I(=O)c1ccccc1 | 88 | 2650 | 0 |  |
| CC(=O)OI1(OC(C)=O)(OC(C)=O)OC(=O)c2ccccc21 | 69 | 130 | 50 |  |
| Cc1ccc(I(=O)=O)cc1 | 47 | 1510 | 6 |  |
| O=[N+]([O-])c1cccc(I(=O)=O)c1 | 86 | 1140 | 27 |  |
| O=C(O)c1cccc(I(=O)=O)c1 | 67 | 890 | 32 |  |
| O=C1OI(O)c2ccccc21 | 10 |  |  | Not Active |
| OO | 65 |  | 0 |  |
| O=I(=O)c1c[nH]cn1 | 43 | 1050 | 22 |  |
| CC(C)(C)OOI1OC(=O)c2ccccc21 | 78 | 230 | 48 |  |
| O=C1OI(=O)(O)c2ccccc21 (stereo not given) | 98 | 1160 | 36 |  |
| O=[N+]([O-])c1ccc(I(=O)=O)cc1 | 90 | 130 | 30 |  |

From ChEMBL document CHEMBL1131920, “Periodinates: a new class of protein tyrosine phosphatase inhibitors” (Bioorg Med Chem Lett, 1999)
